Results published in patent US9914730B2, “Azaquinazoline inhibitors of Atypical protein Kinase C” (Ignyta, Inc., priority 2012, dated 2018).

Target: T1, full-length human PKCι (Homo sapiens, UniProt P41743)
T1 construct: Recombinant, full-length human PKCι expressed in Sf21 insect cells is also commercially available; purchased; host or cells: Sf21 insect cells
T1 sequence (P41743 1-596): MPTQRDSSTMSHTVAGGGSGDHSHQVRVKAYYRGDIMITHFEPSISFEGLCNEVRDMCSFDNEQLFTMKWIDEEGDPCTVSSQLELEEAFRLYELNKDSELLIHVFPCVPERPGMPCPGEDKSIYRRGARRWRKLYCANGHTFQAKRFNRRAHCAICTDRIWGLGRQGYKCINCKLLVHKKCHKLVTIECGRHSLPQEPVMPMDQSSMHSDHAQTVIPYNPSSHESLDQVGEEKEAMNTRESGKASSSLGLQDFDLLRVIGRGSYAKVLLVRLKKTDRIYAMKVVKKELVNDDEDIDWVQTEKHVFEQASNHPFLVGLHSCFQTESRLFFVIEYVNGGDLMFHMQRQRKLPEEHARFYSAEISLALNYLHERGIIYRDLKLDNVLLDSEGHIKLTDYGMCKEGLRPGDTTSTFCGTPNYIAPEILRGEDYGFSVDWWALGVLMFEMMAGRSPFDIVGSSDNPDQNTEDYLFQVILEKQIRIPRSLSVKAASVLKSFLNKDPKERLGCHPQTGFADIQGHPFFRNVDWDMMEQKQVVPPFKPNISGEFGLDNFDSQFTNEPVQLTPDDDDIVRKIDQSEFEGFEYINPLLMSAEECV
Assay: PKCι IC50 IMAP assay, full-length PKCι at 150 μM ATP
Assay type: biochemical
Conditions: read-out: IC50 in IMAP assay against full length PKCi at 150 μM ATP
In short: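 IMAP fluorescence polarisation (ex 485/em 530 nm) read-out; % inhibition set from no-compound (0%) and no-enzyme (100%) controls, IC50 from dose-response curve fit. Sf21-expressed full-length enzyme ~15 pM, 100 nM FAM peptide, ATP 150 μM (5× KM^APP), 60 min at RT.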

SMILES | IC50
Fc1cc(C2CC2)cc(F)c1Nc1cc(-c2nc(N3CCNCC3)c3c(C4CC4)cncc3n2)ccn1 [Example 603, (4-Cyclopropyl-2,6-difluoro-phenyl)-[4-(5-cyclopropyl-4-piperazin-1-yl-pyrido[3,4-d]pyrimidin-2-yl)-pyridin-2-yl]-amine] | < 100 nM
CC(F)(F)C1CN(c2nc(-c3ccnc(Nc4ccccc4)c3)nc3cncc(C4CC4)c23)CCN1 (centres unmarked) [Example 278, (4-{5-Cyclopropyl-4-[3-(1,1-difluoro-ethyl)-piperazin-1-yl]-pyrido[3,4-d]pyrimidin-2-yl}-pyridin-2-yl)-phenyl-amine] | 10000 to 40000 nM
CCN1CCP(=O)(c2ccc(Nc3cc(-c4nc(N5CCNCC5)c5c(C6CC6)cncc5n4)ccn3)c(OC)c2)CC1 [Example 625, [4-(5-Cyclopropyl-4-piperazin-1-yl-pyrido[3,4-d]pyrimidin-2-yl)-pyridin-2-yl]-[4-(1-ethyl-4-oxo-4λ^5-[1,4]azaphos-phinan-4-yl)-2-methoxy-phenyl]-amine] | 100 to 1000 nM
c1cc(-c2nc(N3CCNCC3)c3c(C4CCC4)cncc3n2)cc(NC2CCOCC2)n1 [Example 2210, [4-(5-Cyclobutyl-4-piperazin-1-yl-pyrido[3,4-d]pyrimidin-2-yl)-pyridin-2-yl]-(tetrahydro-pyran-4-yl)-amine] | < 100 nM
Cn1cnc(Nc2cc(-c3nc(N4CCNCC4)c4c(C5CC5)cncc4n3)ccn2)c1 [Example 605, [4-(5-Cyclopropyl-4-piperazin-1-yl-pyrido[3,4-d]pyrimidin-2-yl)-pyridin-2-yl]-(1-methyl-1H-imidazol-4-yl)-amine] | < 100 nM
COc1cncc2nc(-c3ccnc(Nc4ccccc4)c3)nc(N[C@@H]3CCNC3)c12 [Example 238, [5-Methoxy-2-(2-phenylamino-pyridin-4-yl)-pyrido[3,4-d]pyrimidin-4-yl]-(R)-pyrrolidin-3-yl-amine] | < 100 nM
COc1cncc2nc(-c3ccncc3)nc(N3CCN[C@@H](CO)C3)c12 [Example 46, [(2R)-4-[5-methoxy-2-(pyridin-4-yl)-pyrido[3,4-d]-pyrimidin-4-yl]-piperazin-2-yl]-methanol] | < 100 nM
N[C@H](CNc1nc(-c2ccncc2)nc2c(-c3cccnc3)nccc12)Cc1ccccc1 [Example 99, N-[(2S)-2-amino-3-phenylpropyl]-8-(pyridin-3-yl)-2-(pyridin-4-yl)pyrido[3,4-d]pyrimidin-4-amine] | 100 to 1000 nM
Cc1ccccc1-c1nccc2c(NC[C@@H](N)Cc3ccccc3)nc(-c3ccncc3)nc12 [Example 118, N-[(2S)-2-amino-3-phenylpropyl]-8-(2-methyl-phenyl)-2-(pyridin-4-yl)-pyrido[3,4-d]-pyrimidin-4-amine] | 1000 to 10000 nM
C[C@H]1CN(c2nc(-c3ccnc(Nc4ccc(C(F)(F)F)cn4)c3)nc3cncc(C4CC4)c23)CCN1 [Example 839, {4-[5-Cyclopropyl-4-((S)-3-methyl-piperazin-1-yl)-pyrido[3,4-d]pyrimidin-2-yl]-pyridin-2-yl}-(5-trifluoromethyl-pyridin-2-yl)-amine] | < 100 nM
c1cc(-c2nc(N3CCNCC3)c3c(C4CCC4)cncc3n2)c2cc(C3CCC3)[nH]c2n1 [Example 2147, 5-Cyclobutyl-2-(2-cyclobutyl-1H-pyrrolo[2,3-b]pyridin-4-yl)-4-piperazin-1-yl-pyrido[3,4-d]pyrimidine] | < 100 nM
COc1cncc2nc(-c3ccnc(Nc4c(F)ccc(F)c4F)c3)nc(N3CCNCC3)c12 [Example 444, [4-(5-Methoxy-4-piperazin-1-yl-pyrido[3,4-d]pyrimidin-2-yl)-pyridin-2-yl]-(2,3,6-trifluoro-phenyl)-amine] | < 100 nM
CC(Nc1cc(-c2nc(N3CCNCC3)c3c(C4CC4)cncc3n2)ccn1)c1cnn(C)c1 (centres unmarked) [Example 730, [4-(5-Cyclopropyl-4-piperazin-1-yl-pyrido[3,4-d]pyrimidin-2-yl)-pyridin-2-yl]-[1-(1-methyl-1H-pyrazol-4-yl)-ethyl]-amine] | < 100 nM
Fc1ccc(F)c(Nc2cc(-c3nc(N4CCNCC4)c4c(C5CC5)cncc4n3)ccn2)c1F [Example 266, [4-(5-Cyclopropyl-4-piperazin-1-yl-pyrido[3,4-d]pyrimidin-2-yl)-pyridin-2-yl]-(2,3,6-trifluoro-phenyl)-amine] | < 100 nM
Cc1ccc(Nc2cc(-c3nc(N4CCNCC4)c4c(C5CC5)cncc4n3)ccn2)cn1 [Example 546, [4-(5-Cyclopropyl-4-piperazin-1-yl-pyrido[3,4-d]pyrimidin-2-yl)-pyridin-2-yl]-(6-methyl-pyridin-3-yl)-amine] | < 100 nM
Clc1ccccc1-c1cc2c(-c3nc(N4CCNCC4)c4c(C5CC5)cncc4n3)ccnc2[nH]1 [Example 2202, 2-[2-(2-Chloro-phenyl)-1H-pyrrolo[2,3-b]pyridin-4-yl]-5-cyclopropyl-4-piperazin-1-yl-pyrido[3,4-d]pyrimidine] | < 100 nM
COc1cncc2nc(-c3ccnc(NC(=O)C4CC4)c3)nc(N3CCC(O)CC3)c12 [Example 234, Cyclo-propane-carboxylic acid {4-[4-(4-hydroxy-piperidin-1-yl)-5-methoxy-pyrido[3,4-d]pyrimidin-2-yl]-pyridin-2-yl}-amide] | 100 to 1000 nM
Fc1ccc(Cl)c(Nc2cc(-c3nc(N4CCNCC4)c4c(C5CC5)cncc4n3)ccn2)c1 [Example 576, (2-Chloro-5-fluoro-phenyl)-[4-(5-cyclopropyl-4-piperazin-1-yl-pyrido[3,4-d]pyrimidin-2-yl)-pyridin-2-yl]-Amine] | < 100 nM
CC(C)(C)c1cc2c(-c3nc(N4CC[C@@H](O)C4)c4c(C5CC5)cncc4n3)ccnc2[nH]1 [Example 1250, (R)-1-[2-(2-tert-Butyl-1H-pyrrolo[2,3-b]pyridin-4-yl)-5-cyclopropyl-pyrido[3,4-d]pyrimidin-4-yl]-pyrrolidin-3-ol] | < 100 nM
Cc1[nH]c2nccc(-c3nc(N4CCNCC4)c4c(C5CC5)cncc4n3)c2c1Cl [Example 2209, 2-(3-Chloro-2-methyl-1H-pyrrolo[2,3-b]pyridin-4-yl)-5-cyclopropyl-4-piperazin-1-yl-pyrido[3,4-d]pyrimidine] | < 100 nM
COc1cncc2nc(-c3ccnc(NC(=O)Cc4ccncc4)c3)nc(N3CCNCC3)c12 [Example 400, N-[4-(5-Methoxy-4-piperazin-1-yl-pyrido[3,4-d]pyrimidin-2-yl)-pyridin-2-yl]-2-pyridin-4-yl-acetamide] | < 100 nM
CN1CCC(N(C)c2nc(-c3ccnc(Nc4ncc(F)cc4F)c3)nc3cncc(C4CC4)c23)CC1 [Example 2129, {5-Cyclopropyl-2-[2-(3,5-difluoro-pyridin-2-ylamino)-pyridin-4-yl]-pyrido[3,4-d]pyrimidin-4-yl}-methyl-(1-methyl-piperidin-4-yl)-amine] | < 100 nM
c1ccc(C[C@H]2CN(Cc3ccccc3)CCN2c2nc(-c3ccncc3)nc3cnccc23)cc1 [Example 20, (2S)-2,4-dibenzyl-1-[2-(pyridin-4-yl)-pyrido[3,4-d]-pyrimidin-4-yl]-piperazine] | 10000 to 40000 nM
CC(C)c1cncc2nc(-c3ccnc4[nH]ccc34)nc(N3CCNCC3)c12 [Example 1211, 5-Isopropyl-4-piperazin-1-yl-2-(1H-pyrrolo[2,3-b]pyridin-4-yl)-pyrido[3,4-d]pyrimidine] | < 100 nM
FC1(F)CCC(Nc2cc(-c3nc(N4CCNCC4)c4c(C5CC5)cncc4n3)ccn2)C1 (centres unmarked) [Example 621, [4-(5-Cyclopropyl-4-piperazin-1-yl-pyrido[3,4-d]pyrimidin-2-yl)-pyridin-2-yl]-(3,3-difluoro-cyclopentyl)-amine] | < 100 nM
CN1CCN(c2cccc(Nc3cc(-c4nc(N5CCC[C@@H](O)C5)c5c(C6CC6)cncc5n4)ccn3)c2)CC1 [Example 720, (R)-1-(5-Cyclopropyl-2-{2-[3-(4-methyl-piperazin-1-yl)-phenylamino]-pyridin-4-yl}-pyrido[3,4-d]pyrimidin-4-yl)-piperidin-3-ol] | < 100 nM
COc1cncc2nc(-c3ccnc(Nc4cccc(C(F)(F)F)c4)c3)nc(N3CCNCC3)c12 [Example 446, [4-(5-Methoxy-4-piperazin-1-yl-pyrido[3,4-d]pyrimidin-2-yl)-pyridin-2-yl]-(3-trifluoromethyl-phenyl)-amine] | 100 to 1000 nM
N#Cc1ccnc(Nc2cc(-c3nc(N4CCN5C(=O)OCC5C4)c4c(C5CC5)cncc4n3)ccn2)c1 (centres unmarked) [Example 533, 2-{4-[5-Cyclopropyl-4-(3-oxo-tetrahydro-oxazolo[3,4-a]pyrazin-7-yl)-pyrido[3,4-d]pyrimidin-2-yl]-pyridin-2-ylamino}-isonicotinonitrile] | 100 to 1000 nM
CN(C)c1ccc(Nc2cc(-c3nc(N4CCNCC4)c4c(C5CC5)cncc4n3)ccn2)cn1 [Example 551, N^5-[4-(5-Cyclopropyl-4-piperazin-1-yl-pyrido[3,4-d]pyrimidin-2-yl)-pyridin-2-yl]-N^2,N^2-dimethyl-pyridine-2,5-diamine] | < 100 nM
